# Measured values: patent US9221839B2, “C5-C6 oxacyclic-fused thiadiazine dioxide compounds as BACE inhibitors, compositions, and their use” (Merck Sharp & Dohme Corp., priority 2011, dated 2015)
# Tests used:
# [1] = target: soluble human BACE1 catalytic domain (Homo sapiens (Human), UniProt P56817); experiment: BACE1 HTRF FRET Assay; type: biochemical; conditions: Ki calculated from IC50 using the Cheng-Prusoff equation
# Excerpt: Na^+-Acetate pH 5.0; 1% Brij-35; Glycerol; Dimethyl Sulfoxide (DMSO); Recombinant human soluble BACE1 catalytic domain (>95% pure); APP Swedish mutant peptide substrate (QSY7-APP^swe-Eu): QSY7-[…]-Europium-amide.
# A homogeneous time-resolved FRET assay can be used to determine IC50 values for inhibitors of the soluble human BACE1 catalytic domain. This assay monitors the increase of 620 nm fluorescence that resulted from BACE1 cleavage of an APPswedish APP^swe mutant peptide FRET substrate (QSY7-[…]-Europium-amide). This substrate contains an N-terminal QSY7 moiety that serves as a quencher of the C-terminal Europium fluorophore (620 nm Em). In the absence of enzyme activity, 620 nm fluorescence is low in the assay and increased linearly over 3 hours in the presence of uninhibited BACE1 enzyme Inhibition of BACE1 cleavage of the QSY7-APP^swe-Eu substrate by inhibitors is manifested as a suppression of 620 nm fluorescence.
# Reactions are initiated by addition of 10 μl of 600 nM QSY7-APP^swe-Eu substrate (200 nM final) to give a final reaction volume of 30 μl in a 384 well Nunc HTRF plate. The reactions are incubated at 30° C. for 1.5 hours. The 620 nm fluorescence is then read on a Rubystar HTRF plate reader (BMG Labtechnologies) using a […] delay followed by a 400 millisecond acquisition time window. Inhibitor IC50 values are derived from non-linear regression analysis of concentration response curves.
# [2] = target: purified human autoBACE-2 (Homo sapiens, UniProt Q9Y5Z0); experiment: BACE-2 Assay (BACE-HTRF assay); type: biochemical; conditions: Ki calculated from IC50 using the Cheng-Prusoff equation; read-out: BACE2 Ki
# Sequence of purified human autoBACE-2 (Q9Y5Z0 63-518 limits assumed): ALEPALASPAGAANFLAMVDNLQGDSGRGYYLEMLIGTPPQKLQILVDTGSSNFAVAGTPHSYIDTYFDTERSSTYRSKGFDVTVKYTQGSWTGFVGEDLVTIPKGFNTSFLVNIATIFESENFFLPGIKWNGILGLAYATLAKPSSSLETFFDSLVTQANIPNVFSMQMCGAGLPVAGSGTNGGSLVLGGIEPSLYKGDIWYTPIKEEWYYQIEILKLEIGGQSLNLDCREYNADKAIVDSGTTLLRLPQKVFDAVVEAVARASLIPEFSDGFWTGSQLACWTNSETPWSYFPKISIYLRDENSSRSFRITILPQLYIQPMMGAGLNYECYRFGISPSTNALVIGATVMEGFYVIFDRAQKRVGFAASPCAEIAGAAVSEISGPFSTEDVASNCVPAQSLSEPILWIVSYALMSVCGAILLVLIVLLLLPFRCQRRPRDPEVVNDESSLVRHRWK
# Method: Following laser excitation of sample wells at 320 nm, the fluorescence signal at 620 nm is collected for 400 ms following a 50 μs delay on a RUBYstar HTRF plate reader (BMG Labtechnologies). Raw RFU data is normalized to maximum (1.0 nM BACE/DMSO) and minimum (no enzyme/DMSO)RFU values. […] The Ki values are calculated from the IC50 using the Cheng-Prusoff equation.
# Sequence of soluble human BACE1 catalytic domain (P56817 75-416): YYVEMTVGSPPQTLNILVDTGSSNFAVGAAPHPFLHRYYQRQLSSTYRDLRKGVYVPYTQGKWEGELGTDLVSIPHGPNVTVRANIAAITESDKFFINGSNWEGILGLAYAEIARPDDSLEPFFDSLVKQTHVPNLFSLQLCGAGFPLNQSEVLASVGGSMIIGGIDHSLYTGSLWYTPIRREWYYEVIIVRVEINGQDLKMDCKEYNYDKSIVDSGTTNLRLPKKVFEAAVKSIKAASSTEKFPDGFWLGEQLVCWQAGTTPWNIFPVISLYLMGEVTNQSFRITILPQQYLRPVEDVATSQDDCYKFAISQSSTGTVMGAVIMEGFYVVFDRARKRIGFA
Ki [1],Ki [2],Compound
15.8 nM,6.9 nM,COc1cnc(C(=O)Nc2ccc(F)c([C@]34COC[C@H]3S(=O)(=O)N(C)C(=N)N4)c2)c(F)c1 [Example 6e]
872 nM,476 nM,COc1ccc(C(=O)Nc2ccc(F)c([C@@]34COC[C@@H]3S(=O)(=O)N(C)C(=N)N4)c2)nc1 [Example 3a]
354 nM,473 nM,CN1C(=N)N[C@]2(c3cc(NC(=O)c4ccc(C(F)(F)F)cn4)ccc3F)COC[C@@H]2S1(=O)=O [Example 6a]
28.4 nM,55 nM,CN1C(=N)N[C@@]2(c3cc(NC(=O)c4cnc(C(F)(F)F)cn4)ccc3F)COC[C@H]2S1(=O)=O [Example 6d]
197 nM,55.2 nM,CN1C(=N)N[C@]2(c3cc(NC(=O)c4ccc(Cl)cn4)ccc3F)COC[C@@H]2S1(=O)=O [Example 5a]
1330 nM,1510 nM,COc1cnc(C(=O)Nc2ccc(F)c([C@@]34COC[C@@H]3S(=O)(=O)N(C)C(=N)N4)c2)cn1 [Example 4a]
3530 nM,491 nM,CN1C(=N)N[C@]2(c3cc(NC(=O)c4ccc(F)cn4)ccc3F)COC[C@@H]2S1(=O)=O [Example 1a]

# Further lines, the compound ahead of its results:
Compound,Ki [1],Ki [2]
CN1C(=N)NC2(c3ccccc3F)COCC2S1(=O)=O (centres unmarked) [Example 6f],7850 nM,4200 nM
COc1cnc(C(=O)Nc2ccc(F)c([C@]34COC[C@H]3S(=O)(=O)N(C)C(=N)N4)c2)cn1 [Example 4],54.1 nM,48.4 nM
CN1C(=N)N[C@@]2(c3cc(NC(=O)c4ccc(F)cn4)ccc3F)COC[C@H]2S1(=O)=O [Example 1],13 nM,1.9 nM
CN1C(=N)N[C@@]2(c3cc(NC(=O)c4ccc(Cl)cn4)ccc3F)COC[C@H]2S1(=O)=O [Example 5],5.07 nM,1.3 nM
COc1ccc(C(=O)Nc2ccc(F)c([C@]34COC[C@H]3S(=O)(=O)N(C)C(=N)N4)c2)nc1 [Example 3],18.2 nM,8.2 nM
CN1C(=N)N[C@@]2(c3cc(NC(=O)c4ccc(C(F)(F)F)cn4)ccc3F)COC[C@H]2S1(=O)=O [Example 6],9.79 nM,19.5 nM
